Source: publication PMC9862037, “Interactions of Mycotoxin Alternariol with Cytochrome P450 Enzymes and OATP Transporters” (Metabolites, 2022)
Like-named read-outs stand apart in the source and are kept apart here.

Experiments:
[1] = test system: CYP3A4; conditions: read-out: IC50, CYP3A4-catalyzed midazolam hydroxylation, cited from earlier work
[2] = test system: CYP2D6; conditions: read-out: IC50, CYP2D6-mediated dextromethorphan O-demethylation; cited from earlier work
[3] = test system: CYP2C9; conditions: read-out: IC50, CYP2C9-catalyzed tolbutamide hydroxylation; cited from earlier work
[4] = target: OATP1B1 (Homo sapiens, UniProt Q9Y6L6); format: cell-based; set-up: expressed in transfected cells
Method: The assays were performed as described recently. Cells were seeded on 96-well plates one day prior to the measurement. After washing three times with PBS at room temperature, cells were incubated for 15 min with 8-acetoxy-1,3,6-trisulfopyrene (Ace, 5 µM). After this “preloading” stage, the supernatant was removed, and the cells were incubated with the same amount of the probe (Counterflow assay) or without the probe in buffer pH 5.5 (Efflux assay) in the absence and the presence of AOH for further 20 min. Fixed concentrations of AOH were selected based on the IC50 values determined in the transport inhibition assay. […]. Cells were washed three times with ice-cold PBS, then NaOH solution (0.1 N, 200 µL/well) was added. After 20 min, fluorescence was measured with an Enspire plate reader in Ex/Em wavelengths 460/510 nm. Bottom reading was applied with two horizontal (X) and two vertical (Y) points, measurement height was 3 mm with 200 flashes. Fluorescence was compared to the preloaded control incubated with Ace alone, considered as 100%.

Chain of OATP1B1 (Q9Y6L6 whole entry): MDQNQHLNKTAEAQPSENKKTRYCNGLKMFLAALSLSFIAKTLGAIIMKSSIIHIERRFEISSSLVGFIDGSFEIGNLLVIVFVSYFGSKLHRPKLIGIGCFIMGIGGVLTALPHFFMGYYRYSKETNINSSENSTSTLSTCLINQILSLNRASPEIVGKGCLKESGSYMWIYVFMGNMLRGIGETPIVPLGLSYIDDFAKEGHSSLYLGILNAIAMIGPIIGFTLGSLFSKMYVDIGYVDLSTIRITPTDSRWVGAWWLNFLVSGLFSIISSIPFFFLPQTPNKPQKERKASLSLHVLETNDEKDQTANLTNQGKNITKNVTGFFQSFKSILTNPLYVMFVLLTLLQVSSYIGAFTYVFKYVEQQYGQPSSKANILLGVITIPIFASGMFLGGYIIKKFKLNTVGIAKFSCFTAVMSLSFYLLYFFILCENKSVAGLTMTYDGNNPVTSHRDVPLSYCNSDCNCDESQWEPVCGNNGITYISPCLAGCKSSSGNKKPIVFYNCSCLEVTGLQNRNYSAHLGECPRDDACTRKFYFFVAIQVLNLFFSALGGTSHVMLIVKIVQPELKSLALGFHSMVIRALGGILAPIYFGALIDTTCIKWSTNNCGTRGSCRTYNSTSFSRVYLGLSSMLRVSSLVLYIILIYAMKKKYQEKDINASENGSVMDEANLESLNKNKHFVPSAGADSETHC

In the case of `CC(=O)OC[C@]12C[C@H](OC(=O)CC(C)C)C(C)=C[C@H]1O[C@@H]1[C@H](O)[C@@H](OC(C)=O)[C@@]2(C)[C@]12CO2` [T-2 toxin], the IC50 [1] is listed as 27 µM.

For `C[C@H]1CCCC(=O)CCC/C=C/c2cc(O)cc(O)c2C(=O)O1` [Zearalenone], the IC50 ([1]; in vitro) is listed as 1.1 µM, the IC50 [2] is listed as 55.4 µM and the IC50 [3] is listed as 0.54 µM.

In the case of `C=O` [formaldehyde], the “fluorescence signal in the CCF” value [4] is reported as “no change in the fluorescence” and the “effect on efflux of the probe” value ([4]; pH 5.5) is reported as “blocks the efflux”.
